The results in this text go back to ChEMBL document CHEMBL1201862, “PubChem BioAssay data set” (2004).

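Test compounds were applied to cells in 96-well plates for 48 hours at 5 doses. GI50: concentration for 50% inhibition of growth.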 The source made the active and inactive calls. No stated cut-off is given here; in the data, active = GI50 up to about 1.1 µM and inactive = higher.

Among the test systems are SK-MEL-5; SNB-19; SN12C; UACC-257; MOLT-4; ACHN; U-251; NCI-H522; NCI-H226; HCT-15; IGROV-1; CAKI-1; RPMI-8226; SF-295; HCT-116; OVCAR-8; KM12; SW-620; LOX IMVI; SF-539.
Holding throughout (assay): NCI-60 cell line screen, 48 h

As for `O=C1C(Cl)=C(Cl)C(=O)N1c1ccccc1Cl`, the GI50 in the assay with SK-MEL-5 was > 100 µM (inactive); with SNB-19 it was > 100 µM (inactive); in the assay with SN12C, > 100 µM (inactive); in the assay on UACC-257 it was > 100 µM (inactive); in the assay on MOLT-4, 30.9 µM (inactive); with ACHN, > 100 µM (inactive). Besides, the GI50 in the assay on U-251 was > 100 µM (inactive); in the assay on NCI-H522 it was 8.24 µM (inactive); in the assay on NCI-H226 it was > 100 µM (inactive); in the assay with HCT-15, more than 53.6 µM; in the assay on IGROV-1, > 100 µM (inactive); in the assay with CAKI-1, > 44.2 µM (inactive). Besides, the GI50 is > 54.1 µM (inactive) with RPMI-8226; > 100 µM (inactive) in the assay with SF-295; > 100 µM (inactive) in the assay with HCT-116; > 100 µM (inactive) in the assay with OVCAR-8; > 100 µM (inactive) with KM12; > 52.6 µM (inactive) in the assay with SW-620. For the same molecule, the GI50 in the assay on LOX IMVI and with SF-539 was > 100 µM (inactive) in each case.

Consider `CN1CCOC(C(NC(=O)c2ccccc2)c2ccccc2)C1=O` (stereo not given), for which the GI50 in the assay on SK-MEL-5, in the assay on SNB-19, in the assay on SN12C, with UACC-257, in the assay on MOLT-4 and in the assay on ACHN was > 100 µM (inactive) in each case. In addition, the GI50 in the assay on U-251 is > 100 µM (inactive); with NCI-H522 it was > 100 µM (inactive); with NCI-H226, > 100 µM (inactive); in the assay on HCT-15, more than 100 µM; in the assay with IGROV-1, > 100 µM (inactive); with CAKI-1, > 100 µM (inactive). The GI50 in the assay on RPMI-8226, with SF-295, with HCT-116, in the assay on OVCAR-8, in the assay with KM12 and with SW-620 was > 100 µM (inactive) throughout. Besides, the GI50 in the assay on LOX IMVI and with SF-539 was > 100 µM (inactive) throughout.

Take `O=C(NC1CCCCCC1)C1C(=O)N(C2CCCCCC2)C(=O)/C1=N\O` (stereo not given): the GI50 in the assay on SK-MEL-5 was 36.1 µM (inactive); with SNB-19 it was 35.2 µM (inactive); in the assay with SN12C, 34.7 µM (inactive); in the assay with UACC-257, 38.8 µM (inactive); with MOLT-4, 21.5 µM (inactive); with ACHN it was 35.2 µM (inactive). Besides, the GI50 in the assay on U-251 is 18.6 µM (inactive); with NCI-H522 it was 19.6 µM (inactive); with NCI-H226, 35.6 µM (inactive); with HCT-15, 34.4 µM; with IGROV-1 it was 50 µM (inactive); with CAKI-1 it was 40.2 µM (inactive). The GI50 is 29.1 µM (inactive) with RPMI-8226; 36.6 µM (inactive) in the assay on SF-295; 17.3 µM (inactive) in the assay on HCT-116; 38.6 µM (inactive) with OVCAR-8; 37.1 µM (inactive) in the assay with KM12; 37.6 µM (inactive) in the assay with SW-620. The GI50 in the assay with LOX IMVI is 35.6 µM (inactive); in the assay on SF-539, 25.2 µM (inactive).

Turning to `Cc1ccccc1-n1c(=O)nc2n(-c3ccc(C(C)(C)C)cc3)c3ccccc3cc-2c1=O`, the GI50 was 15.1 µM (inactive) in the assay with SK-MEL-5; 21.5 µM (inactive) in the assay with SNB-19; 17.7 µM (inactive) in the assay on SN12C; 17.2 µM (inactive) in the assay with UACC-257; 23.8 µM (inactive) with MOLT-4; 32.5 µM (inactive) in the assay on ACHN. For the same molecule, the GI50 is 15 µM (inactive) in the assay on U-251; 21.7 µM (inactive) with NCI-H522; 18.8 µM (inactive) in the assay on NCI-H226; 16.6 µM in the assay with HCT-15; 24.3 µM (inactive) in the assay on IGROV-1; 23.9 µM (inactive) in the assay with CAKI-1. The GI50 in the assay with RPMI-8226 is 24.2 µM (inactive); in the assay on SF-295, 20.4 µM (inactive); in the assay with HCT-116, 15.5 µM (inactive); in the assay on OVCAR-8, 17.1 µM (inactive); in the assay with KM12 it was 15.3 µM (inactive); in the assay on SW-620, 15.9 µM (inactive). Further, the GI50 is 15.6 µM (inactive) with LOX IMVI and 17.8 µM (inactive) with SF-539.

On to `C=C1C(=O)O[C@H]2[C@H](OC(C)=O)[C@@H](C)CCC/C(C)=C/CC[C@@]3(C)O[C@@H]3C[C@@H]12`, for which the GI50 is 4.19 µM (inactive) with SK-MEL-5; 13.6 µM (inactive) in the assay with SNB-19; 1.61 µM (inactive) in the assay on SN12C; 5.06 µM (inactive) in the assay with UACC-257; 2.6 µM (inactive) in the assay on MOLT-4; 1.72 µM (inactive) with ACHN. In addition, the GI50 in the assay with U-251 is 6.34 µM (inactive); with NCI-H522 it was 1.78 µM (inactive); with NCI-H226, 1.5 µM (inactive); with HCT-15, 2.31 µM; in the assay on IGROV-1, 2.77 µM (inactive); in the assay with CAKI-1, 2.19 µM (inactive). Moreover, the GI50 is 1.4 µM (inactive) in the assay on RPMI-8226; 13.2 µM (inactive) in the assay with SF-295; 2.23 µM (inactive) in the assay with HCT-116; 0.885 µM (active) with OVCAR-8; 6.44 µM (inactive) in the assay with KM12; 2.58 µM (inactive) in the assay on SW-620. Besides, the GI50 in the assay on LOX IMVI was 1.86 µM (inactive); with SF-539, 1.95 µM (inactive).

With `Cc1nnc(N/N=C2\C(=O)Nc3ccccc32)n1N`, the GI50 in the assay on SK-MEL-5, in the assay on SNB-19, in the assay with SN12C, in the assay on UACC-257, in the assay on MOLT-4 and with ACHN was > 100 µM (inactive) each time. Further, the GI50 is > 100 µM (inactive) in the assay with U-251; > 100 µM (inactive) with NCI-H522; > 100 µM (inactive) in the assay with NCI-H226; more than 100 µM with HCT-15; > 100 µM (inactive) with IGROV-1; > 100 µM (inactive) in the assay with CAKI-1. Besides, the GI50 with RPMI-8226, in the assay on SF-295, in the assay with HCT-116, in the assay with OVCAR-8, in the assay on KM12 and with SW-620 was > 100 µM (inactive) throughout. Moreover, the GI50 in the assay with LOX IMVI and in the assay with SF-539 was > 100 µM (inactive) each time.

As for `Cc1cccc2c1CC1(C2)Cc2c(C)cccc2C1=O` (stereo not given), the GI50 with SK-MEL-5 is 18.2 µM (inactive); in the assay on SNB-19, 49.3 µM (inactive); in the assay with SN12C, 23.2 µM (inactive); in the assay with UACC-257 it was 23 µM (inactive); in the assay on MOLT-4, 9.91 µM (inactive); with ACHN, 24.9 µM (inactive). The GI50 is 23.8 µM (inactive) with U-251; 17.8 µM (inactive) in the assay on NCI-H522; 26.8 µM (inactive) with NCI-H226; 29 µM with HCT-15; 30.4 µM (inactive) in the assay on IGROV-1; 10.3 µM (inactive) in the assay on CAKI-1. In addition, the GI50 is 14.8 µM (inactive) in the assay on RPMI-8226; 27.9 µM (inactive) in the assay on SF-295; 16.5 µM (inactive) in the assay on HCT-116; 42.9 µM (inactive) with OVCAR-8; 25.2 µM (inactive) with KM12; 29.9 µM (inactive) in the assay on SW-620. Further, the GI50 was 17.5 µM (inactive) with LOX IMVI and 25.9 µM (inactive) with SF-539.

For `CC(=O)O[C@H]1C(=O)[C@@]2(C)C(C(OC(=O)c3ccccc3)[C@]3(O)CC(OC(=O)C(O)C(NC(=O)c4cccc(Cl)c4)c4ccccc4)C(C)=C1C3(C)C)[C@]1(OC(C)=O)CO[C@@H]1C[C@@H]2O` (stereo not given in full), the GI50 with SK-MEL-5 was 0.42 µM (active); in the assay with SNB-19, 2.79 µM (inactive); in the assay with SN12C it was 0.628 µM (active); in the assay on UACC-257, 2.09 µM (inactive); in the assay on MOLT-4, 1.01 µM (active); in the assay with ACHN, 1.82 µM (inactive). Further, the GI50 in the assay with U-251 is 1.25 µM (inactive); with NCI-H522 it was 0.912 µM (active); in the assay with NCI-H226 it was > 10 µM (inactive); in the assay with HCT-15 it was 2.62 µM; with IGROV-1 it was 0.624 µM (active); in the assay on CAKI-1 it was 6.64 µM (inactive). Moreover, the GI50 in the assay with RPMI-8226 was 0.405 µM (active); with SF-295 it was 1.15 µM (inactive); in the assay with HCT-116, 0.16 µM (active); in the assay with OVCAR-8, 0.653 µM (active); in the assay with KM12, 0.507 µM (active); with SW-620, 0.838 µM (active). Besides, the GI50 with LOX IMVI was 0.841 µM (active); with SF-539 it was 0.353 µM (active).

As to `CC1=NN(C(=O)c2ccccc2O)C(=O)/C1=C/c1ccco1`, the GI50 was 1.36 µM (inactive) with SK-MEL-5; 7.55 µM (inactive) with SNB-19; 2.96 µM (inactive) with SN12C; 8.73 µM (inactive) in the assay on UACC-257; 1.93 µM (inactive) in the assay on MOLT-4; 2.26 µM (inactive) in the assay with ACHN. Also, the GI50 in the assay with U-251 is 6.89 µM (inactive); in the assay with NCI-H522, 1.74 µM (inactive); with NCI-H226 it was 3.46 µM (inactive); in the assay on HCT-15, 2.22 µM; in the assay with IGROV-1, 1.26 µM (inactive); in the assay on CAKI-1, 1.61 µM (inactive). The GI50 was 5.57 µM (inactive) in the assay with RPMI-8226; 3.58 µM (inactive) in the assay with SF-295; 2.23 µM (inactive) in the assay with HCT-116; 2.59 µM (inactive) in the assay on OVCAR-8; 7.01 µM (inactive) in the assay with KM12; 3.3 µM (inactive) in the assay on SW-620. Moreover, the GI50 in the assay with LOX IMVI is 2.67 µM (inactive); with SF-539, 0.818 µM (active).

Take `O=C1Nc2ccccc2/C1=N/Nc1ccccc1[N+](=O)[O-]`: the GI50 is 40.9 µM (inactive) with SK-MEL-5; 48.5 µM (inactive) in the assay on SNB-19; 40.7 µM (inactive) in the assay with SN12C; 56.1 µM (inactive) with UACC-257; 51.4 µM (inactive) in the assay with MOLT-4; 11.6 µM (inactive) in the assay with ACHN. For the same molecule, the GI50 is 15.5 µM (inactive) with U-251; 21.8 µM (inactive) with NCI-H522; 1.67 µM (inactive) in the assay on NCI-H226; 55.5 µM in the assay on HCT-15; 0.185 µM (active) in the assay on IGROV-1; 21.6 µM (inactive) with CAKI-1. In addition, the GI50 with RPMI-8226 is 80.7 µM (inactive); with SF-295, 56.9 µM (inactive); in the assay on HCT-116, 25.9 µM (inactive); in the assay with OVCAR-8, 23.3 µM (inactive); in the assay with KM12, 33.8 µM (inactive); in the assay on SW-620 it was 32.1 µM (inactive). The GI50 with LOX IMVI was 36.4 µM (inactive); with SF-539 it was 9.89 µM (inactive).
